In patent US20250243238A1, “TETRAZINE AMINO ACIDS AND METHODS FOR THEIR PRODUCTION AND USE” (Oregon State University, priority 2024, published 2025):

Assays:
[1] = system: Mb-PylRS/tRNACUA pairs D4 and E1; experiment: Efficiency, fidelity and permissivity of evolved synthetases: GFP150-TAG expression in E. coli with Tet ncAA; assay type: cell-based, Methanosarcina barkeri; settings: synthetases D4 and E1
Protocol: (§1) To incorporate Tet ncAAs in the protein, a GCE machinery was developed to encode Tet ncAAs into the protein in response to TAG codon suppression with evolving orthogonal aaRS/tRNAcuA pair. The permissibility of developed synthetases for structurally parallel Tet ncAA derivatives was evaluated in 25 mL scale in presence and absence of 0.5 mM Tet ncAA.
(§2) Efficiency and fidelity of selected synthetases. The efficiency and fidelity of the selected synthetases were measured by expressing GFP150 in 50 mL AIM with and without 0.5 mM Tet4-Ph. DH10b cells containing the selected pBK-RSs and the pALS-GFP150TAG plasmids, were used to inoculate 5 mL of NIM containing kanamycin (50 μg/mL) and tetracycline (25 μg/mL). Cells were grown for 16 hours at 37° C. shaking at 250 rpm. The saturated NIM cultures (500 μL) were used to inoculate in 50 mL AIM containing kanamycin (50 μg/mL) and tetracycline (25 μg/mL) and measured fluorescence using a Turner Biosystems Picofluor fluorimeter diluting 100 μL cell culture in 1.9 mL water. Two synthetases D4 and E1 for Tet4-Ph were identified to have good efficiency and fidelity. The selected two synthetases are differ at two mutation sites C313A/G and W382I/V respectively.
(§3) Permissivity screen for Tet4-Pyr with selected synthetases. To assess if the top four selected RSs for Tet4-Ph could incorporate Tet4-Pyr, expressions of GFP150TAG with Tet4-Pyr were evaluated. Using the above efficiency and fidelity method, 5 mL AIM separate cultures were inoculated with cells containing the pBK-RSs/pALS-GFP150. Tet4-Pyr (0.5 mM) was added to cultures from a 50 mM DMF ncAA stock solution. Cultures were grown for 30-36 hours at 37° C. and 250 rpm. Fluorescence of the culture was measured by diluting 100 μL cell culture in 1.9 mL water.
(§4) Expression and purification of GFP150-TAG-Tet4. […] Protein concentration was determined by measuring absorbance at 280 nm. Protein purity was assessed using SDS-PAGE.

[2] = Stability and reactivity of incorporated Tet ncAA inside protein on storage in PBS; assay type: physicochemical
Protocol: The stability and reaction efficiency of incorporated Tet ncAAs in proteins was investigated. […] The SDS-PAGE gel mobility shift assay and mass spectrometry analysis of the incorporated Tet-v2.0, Tet-v3.0 and Tet-v4.0 derivatives confirmed their stability and reactivity with sTCO.
Mobility shift assay. Labeling efficiency and purity of Tet-containing proteins have been verified by reacting with 10 eqv. sTCO-PEG5k under PBS (pH 7.1) for 10 minutes at room temperature and examined the mobility shift of the reacted proteins in SDS-PAGE gel. The mobility shift assay helps to provide an insight into the reaction efficiency of Tet-containing proteins and also quantifies the amount of reactive Tet ncAA present in protein and measures if there is any misincorporation or Tet-degradation by showing unreactive protein.
In addition, to assess their stability and reactivity more rigorously, GFP-Tet-v4.0 (Ph, 3-Me-Ph, 3-F-Ph and Pyr) were incubated at 4° C. and room temperature (RT) under 50 mM PBS (pH 7.1) with 100 mM imidazole and studied their reaction efficiency for another 8 days.
Mass spectrometry. The site-specific labelling reaction between Tet ncAA and sTCO is quantitative inside protein was confirmed by ESI-Q-TOF mass spectrometry. […] No other peak has been detected for sTCO exposed samples which verified that the GFP-Tet reacts with sTCO quantitatively without involving side reactions.

[3] = system: Pyl-tRNA/RS pairs (Tet4 E1 and D4 synthetases); experiment: Tet4 ncAA incorporation into GFP150-TAG in HEK293T cells, suppression efficiency by flow cytometry; assay type: cell-based, Methanosarcina barkeri; settings: flow cytometry
Protocol: (§5) To access newly developed Tet4.0 derivatives into mammalian cells, an optimized eukaryotic expression system was used and their stability and reaction efficiency were validated inside living cells. The permissibility of Tet-v4.0 derivatives into eukaryotic protein was tested with an evolved synthetase Tet-v4.0 E1 and D4 co-transfected with the reporter plasmid pAcBac1-sfGFP-TAG150 into the HEK293T cells and supplemented with 100 μM each of five different Tet-v4.0 (Ph, 3-Me-Ph, 3-F-Ph, 4-F-Ph, and Pyr) derivatives side-by-side.
(§6) The compatibility of the Tet4 system with mammalian cells was explored. Specifically, the ability of Tet4 to be incorporated into proteins expressed in HEK293T cells, an immortalized human embryonic kidney cell line, was explored. […] Genes for Tet4 E1 and D4 synthetases were cloned with a terminal nuclear export sequence into the eukaryotic expression Pyl-tRNA/RS vector pAcBac1. Pyl-tRNA/RS pairs were then co-transfected with pAcBac1-GFP150-TAG into HEK293T cells and incubated either in the absence of ncAA, or with various concentrations of Tet4 ncAAs, and suppression efficiencies were assessed using flow cytometry. Tet4-Ph and Tet4-Pyr were incorporated into GFP about 50% as well as the Tet-v3.0 system, Tet3-Bu. As with Tet4 incorporation into E. coli expressed proteins, the highest suppression efficiencies in HEK293T cells were obtained with Mb-PylRS synthetase E1 and Tet4-Ph ncAA. Selective incorporation and reactivity of GFP150-Tet4 proteins were verified in whole-cell HEK293T lysates using sTCO-PEG5k-induced SDS-PAGE mobility shifts, and in purified proteins by mass spectrometry.
(§7) Transfection of HEK293T cells and imaging method. HEK293T cells were plated in a 24-well plate at the density of 40% confluency. Cells were transfected the next day using jetPRIME reagent according to the manufacturer's protocol. Briefly, 67 ng of pAcBac1-NES-D4-RS or pAcBac1-NES-E1-RS and 555 ng of pAcBac1-GFP-150TAG plasmid DNA were diluted with 50 μL of jetPRIME buffer. […] GFP expression was verified by fluorescence microscopy on EVOS FL imaging system.

[4] = biological target: T1, Mb-PylRS/tRNACUA pairs D4 and E1 (Methanosarcina barkeri, UniProt Q6WRH6, C313A/N311S/V366H/W382I); experiment: Efficiency, fidelity and permissivity of evolved synthetases: GFP150-TAG expression in E. coli with Tet ncAA; assay type: cell-based; settings: synthetase D4 only
T1 construct: D4-Py1RS (Protein); expressed in transfected cells; host or cells: E. coli DH10b carrying pBK-RS and pALS-GFP150TAG
Protocol: as §1, §2, §3, §4

[5] = biological target: T2, Pyl-tRNA/RS pairs (Tet4 E1 and D4 synthetases) (Methanosarcina barkeri, UniProt Q6WRH6, C313A/N311S/V366H/W382I); experiment: Tet4 ncAA incorporation into GFP150-TAG in HEK293T cells, suppression efficiency by flow cytometry; assay type: cell-based; settings: 100 μM ncAA, synthetase D4
T2 construct: D4-Py1RS (Protein); expressed in transfected cells; host or cells: HEK293T
Protocol: as §5, §6, §7

T1 sequence (Q6WRH6 whole entry N311S/C313A/V366H/W382I): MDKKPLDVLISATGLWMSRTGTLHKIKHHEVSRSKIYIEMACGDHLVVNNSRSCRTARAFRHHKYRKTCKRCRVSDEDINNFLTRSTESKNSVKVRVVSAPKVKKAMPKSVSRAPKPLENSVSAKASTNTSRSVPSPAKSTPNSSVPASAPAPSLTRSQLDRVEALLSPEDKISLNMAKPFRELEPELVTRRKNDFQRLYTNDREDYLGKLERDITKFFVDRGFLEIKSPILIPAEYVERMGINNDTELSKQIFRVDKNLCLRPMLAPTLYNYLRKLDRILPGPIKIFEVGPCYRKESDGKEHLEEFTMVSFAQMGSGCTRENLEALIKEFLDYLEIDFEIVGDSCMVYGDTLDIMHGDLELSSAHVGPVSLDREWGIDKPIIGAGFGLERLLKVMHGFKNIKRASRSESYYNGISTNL
T2 sequence (Q6WRH6 whole entry N311S/C313A/V366H/W382I): as above

Compound | yield of GFP150-TAG expressed with the ncAA [1] | stability inside protein ([2]; PBS pH 7.1, both 4° C. and RT, after 8 days) | incorporation into GFP relative to the Tet-v3.0 system, Tet3-Bu [3] | yield of GFP150-TAG expressed with the ncAA [4] | yield of GFP150-TAG expressed with the ncAA ([4]; listed as Tet-v4.0Pyr) | stability and reactivity inside protein ([2]; GFP-Tet protein, PBS pH 7.1, room temperature) | incorporation into GFP-TAG150 [5]
N[C@@H](Cc1nnc(-c2ccccc2)nn1)C(=O)O [Tet4-Ph, (S)-2-amino-3-(6-phenyl-1,2,4,5-tetrazin-3-yl)propanoic acid] | 55 to 60 mg/L | highly stable | about 50% |  |  |  | 
N[C@@H](Cc1nnc(-c2ccccn2)nn1)C(=O)O [Tet4-Pyr, (S)-2-amino-3-(6-(pyridin-2-yl)-1,2,4,5-tetrazin-3-yl)propanoic acid] |  |  | about 50% | about 40 mg/L | 35 to 40 mg/L | degraded with time | relatively high yield
